The Kinase Knowledgebase extract (Sharma et al. 2016)

Target: CDK2 (UniProt P24941)
Experiment: Enzyme Assay

SMILES: COc1ccc(CNc2nc(NCCCNC(=O)[C@H]3CSC(=O)N3)nc3c2ncn3C(C)C)cc1
- IC50: 2 µM
